The target of one test is T1, BaF3 BRAF-KIAA1549 fusion cells (Homo sapiens, UniProt P15056).
T1 construct: The BRAF-KIAA1549 fusion mutant was subcloned into pMXs-IRES-Blasticidin (RTV-016, Cell Biolabs, San Diego, CA); No tag given; Q9HCM3 (UPF0606 protein KIAA1549)
T1 sequence (P15056 whole entry, change not shown, the tested form may be a part): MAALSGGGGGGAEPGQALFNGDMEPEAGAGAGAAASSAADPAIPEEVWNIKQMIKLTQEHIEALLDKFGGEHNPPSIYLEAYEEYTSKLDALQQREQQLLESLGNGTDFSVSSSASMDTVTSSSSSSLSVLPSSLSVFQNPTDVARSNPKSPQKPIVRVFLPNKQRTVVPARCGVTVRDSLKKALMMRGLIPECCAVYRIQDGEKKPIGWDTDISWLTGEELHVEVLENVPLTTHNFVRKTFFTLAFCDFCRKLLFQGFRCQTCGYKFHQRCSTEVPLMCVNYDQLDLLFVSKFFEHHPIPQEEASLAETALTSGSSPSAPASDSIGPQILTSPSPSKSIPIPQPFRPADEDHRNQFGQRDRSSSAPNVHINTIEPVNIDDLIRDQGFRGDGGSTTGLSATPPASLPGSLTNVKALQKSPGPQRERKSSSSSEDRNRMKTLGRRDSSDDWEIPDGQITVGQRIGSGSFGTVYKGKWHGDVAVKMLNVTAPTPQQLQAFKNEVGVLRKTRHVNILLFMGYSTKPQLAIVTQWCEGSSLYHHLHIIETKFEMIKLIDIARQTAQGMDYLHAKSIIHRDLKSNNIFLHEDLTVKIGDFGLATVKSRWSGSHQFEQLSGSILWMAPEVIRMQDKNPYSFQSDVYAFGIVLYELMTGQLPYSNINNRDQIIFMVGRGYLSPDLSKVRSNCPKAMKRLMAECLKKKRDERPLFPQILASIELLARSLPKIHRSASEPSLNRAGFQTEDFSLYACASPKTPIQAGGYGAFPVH
Briefly: BaF3 BRAF-KIAA1549 fusion cell proliferation assay (CellTiterGlo, 96 hours). Format: cell-based. To be noted: Table A1. In a few lines: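 BaF3 cells retrovirally transduced with BRAF-KIAA1549 fusion and blasticidin-selected were plated at 7×10^4 c/well in RPMI, 10% heat-inactivated FBS, 1% L-glutamine, and exposed to compound for 96 hours. Growth was read as ATP content by CellTiterGlo luminescence. IC50 was fitted by Levenberg-Marquardt, normalised to DMSO-treated cells.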
(Cellular ATP, detected with luciferase, serves as a proxy for viable cell number.)
A word on the GI50: it is the concentration that inhibits growth by half. Read a high GI50 as lower sensitivity of the cells. The compound `CNc1cc2ncc(-c3cc(NC(=O)c4cncc(C(F)(F)F)c4)cnc3C)cc2cn1` [Compound 21, N-(6-Methyl-5-(7-(methylamino)-1,6-naphthyridin-3-yl)pyridin-3-yl)-5-(trifluoromethyl)nicotinamide] returned a 50% growth inhibitory concentration (GI50) of 20 to 100 nM.

The compound `CNc1cc2ncc(-c3cc(NC(=O)c4ccnc(C(C)(C)F)c4)ccc3C)cc2cn1` [Compound 10, 2-(2-Fluoropropan-2-yl)-N-(4-methyl-3-(7-(methylamino)-1,6-naphthyridin-3-yl)phenyl)isonicotinamide] gave a GI50 of under 20 nM.

For the compound `CNc1cc2ncc(-c3cc(NC(=O)c4ccc(OC(F)F)cn4)cnc3C)cc2cn1` [Compound 72, 5-(Difluoromethoxy)-N-(6-methyl-5-(7-(methylamino)-1,6-naphthyridin-3-yl)pyridin-3-yl)picolinamide], the GI50 was at least 500 nM.

`CNc1cc2ncc(-c3cc(NC(=O)c4cc(C(C)(C)C#N)ccn4)ccc3C)cc2cn1` [Compound 14, 4-(2-Cyanopropan-2-yl)-N-(4-methyl-3-(7-(methylamino)-1,6-naphthyridin-3-yl)phenyl)picolinamide] displayed a GI50 of under 20 nM.

For `CNc1cc2ncc(-c3cc(NC(=O)[C@H](C)n4cnc(C(F)(F)F)n4)ccc3C)cc2cn1` (single isomer, unassigned) [Compound 68], the GI50 lay in the range of 20 to 100 nM.

On to `CNc1cc2ncc(-c3cc(NC(=O)c4ccnc(C(C)(C)C)c4)cnc3C)cc2cn1` [Compound 58, 2-(tert-Butyl)-N-(6-methyl-5-(7-(methylamino)-1,6-naphthyridin-3-yl)pyridin-3-yl)isonicotinamide], for which the concentration for 50% growth inhibition (GI50) fell in the range of 20 to 100 nM.

For the compound `CNc1cc2ncc(-c3cc(NC(=O)c4cc(C(C)(C)F)ccn4)ccc3C)cc2cn1` [Compound 13, 4-(2-Fluoropropan-2-yl)-N-(4-methyl-3-(7-(methylamino)-1,6-naphthyridin-3-yl)phenyl)picolinamide], the GI50 lay in the range of 100 to 500 nM.

`CNc1cc2ncc(-c3cc(NC(=O)c4cc(C(F)F)ccn4)ccc3C)cc2cn1` [Compound 11, 4-(Difluoromethyl)-N-(4-methyl-3-(7-(methylamino)-1,6-naphthyridin-3-yl)phenyl)picolinamide] registered a GI50 of 20 to 100 nM.

The compound `CNc1cc2ncc(-c3cc(NC(=O)c4cc(C(C)(C)C#N)ccn4)c(F)c(F)c3C)cc2cn1` [Compound 51, 4-(2-Cyanopropan-2-yl)-N-(2,3-difluoro-4-methyl-5-(7-(methylamino)-1,6-naphthyridin-3-yl)phenyl)picolinamide] displayed a GI50 of at least 500 nM.

In turn, `CNc1cc2ncc(-c3cc(NC(=O)c4cc(C(C)(F)F)ccn4)cnc3C)cc2cn1` [Compound 23, 4-(1,1-Difluoroethyl)-N-(6-methyl-5-(7-(methylamino)-1,6-naphthyridin-3-yl)pyridin-3-yl)picolinamide] came in with a GI50 of 20 to 100 nM.

With `Cc1ccc(NC(=O)c2cc(C(F)F)ccn2)cc1-c1cnc2cc(NCCC#N)ncc2c1` [Compound 78, N-(3-(7-((2-cyanoethyl)amino)-1,6-naphthyridin-3-yl)-4-methylphenyl)-4-(difluoromethyl)picolinamide], the GI50 was 20 to 100 nM.

On to `CNc1cc2ncc(-c3cc(NC(=O)c4nccc(C(F)(F)F)c4Cl)ccc3C)cc2cn1` [Compound 6, 3-Chloro-N-(4-methyl-3-(7-(methylamino)-1,6-naphthyridin-3-yl)phenyl)-4-(trifluoromethyl)picolinamide], for which the GI50 was under 20 nM.

In turn, `CNc1cc2ncc(-c3cc(NC(=O)c4ccnc(C(C)(F)F)c4)cnc3C)cc2cn1` [Compound 29, 2-(1,1-Difluoroethyl)-N-(6-methyl-5-(7-(methylamino)-1,6-naphthyridin-3-yl)pyridin-3-yl)isonicotinamide] returned a GI50 of under 20 nM.

For the compound `CNc1cc2ncc(-c3cc(NC(=O)c4ccnc(C(F)F)c4)ccc3C)cc2cn1` [Compound 8, 2-(Difluoromethyl)-N-(4-methyl-3-(7-(methylamino)-1,6-naphthyridin-3-yl)phenyl)isonicotinamide], the GI50 lay in the range of 20 to 100 nM.

`CNc1cc2ncc(-c3cc(NC(=O)c4cc(C(C)(F)F)ccn4)ccc3C)cc2cn1` [Compound 12, 4-(1,1-Difluoroethyl)-N-(4-methyl-3-(7-(methylamino)-1,6-naphthyridin-3-yl)phenyl)picolinamide] yielded a GI50 of 20 to 100 nM.

Staying with this test, now noted: Table A2.
Turning to `CNc1cc2ncc(-c3cc(NC(=O)c4noc5c4C[C@@H](C)CC5)ccc3C)cc2cn1` (single isomer, unassigned) [Compound 236], the GI50 lay within 20 to 100 nM.

The compound `CNc1cc2ncc(-c3cc(NC(=O)c4cc(C(C)(C)C(N)=O)ccn4)ccc3C)cc2cn1` [Compound 255] registered a GI50 of 20 to 100 nM.

Take `CNc1cc2ncc(-c3cc(NC(=O)c4cnc5n4CC(C)CC5)cnc3C)cc2cn1` (stereo not drawn) [Compound 225, 6-methyl-N-(6-methyl-5-(7-(methylamino)-1,6-naphthyridin-3-yl)pyridin-3-yl)-5,6,7,8-tetrahydroimidazo[1,2-a]pyridine-3-carboxamide]: the GI50 was in the range of 20 to 100 nM.

In turn, `CNc1cc2ncc(-c3cc(NC(=O)c4nn(C)c5c4CCCC5)cnc3C)cc2cn1` [Compound 233, 1-methyl-N-(6-methyl-5-(7-(methylamino)-1,6-naphthyridin-3-yl)pyridin-3-yl)-4,5,6,7-tetrahydro-1H-indazole-3-carboxamide] had a GI50 of 20 to 100 nM.

The compound `CNc1cc2ncc(-c3cc(NC(=O)c4cc([C@H](O)C(C)(F)F)ccn4)cnc3C)cc2cn1` (single isomer, unassigned) [Compound 249] registered a concentration for 50% growth inhibition (GI50) of 20 to 100 nM.

As for `CNc1cc2ncc(-c3cc(NC(=O)c4n[nH]c5c4C[C@H](C)O[C@@H]5C)ccc3C)cc2cn1` [Compound 264, (5S,7R)-5,7-dimethyl-N-(4-methyl-3-(7-(methylamino)-1,6-naphthyridin-3-yl)phenyl)-1,4,5,7-tetrahydropyrano[3,4-c]pyrazole-3-carboxamide], the GI50 lay in the range of 20 to 100 nM.

Consider `CNc1cc2ncc(-c3cc(NC(=O)N(C)c4ccnc(C(F)F)c4)cnc3C)cc2cn1` [Compound 190, 1-(2-(difluoromethyl)pyridin-4-yl)-1-methyl-3-(6-methyl-5-(7-(methylamino)-1,6-naphthyridin-3-yl)pyridin-3-yl)urea], for which the GI50 was 100 to 500 nM.

As to `CNc1cc2ncc(-c3cc(NC(=O)c4cc(C(O)C(C)C)ccn4)cnc3C)cc2cn1` (stereo not drawn) [Compound 202, 4-(1-hydroxy-2-methylpropyl)-N-(6-methyl-5-(7-(methylamino)-1,6-naphthyridin-3-yl)pyridin-3-yl)picolinamide], the GI50 is 20 to 100 nM.

As for `CNc1cc2ncc(-c3cc(NC(=O)c4cccc5c4CCCC5=O)cnc3C)cc2cn1` [Compound 198, N-(6-methyl-5-(7-(methylamino)-1,6-naphthyridin-3-yl)pyridin-3-yl)-5-oxo-5,6,7,8-tetrahydronaphthalene-1-carboxamide], the GI50 is at least 500 nM.

For the compound `CNc1cc2ncc(-c3cc(NC(=O)c4cccc(C(C)(F)F)c4)cnc3C)cc2cn1` [Compound 200, 3-(1,1-difluoroethyl)-N-(6-methyl-5-(7-(methylamino)-1,6-naphthyridin-3-yl)pyridin-3-yl)benzamide], the GI50 is under 20 nM.

The compound `CNc1cc2ncc(-c3cc(NC(=O)c4cnc5n4CCCCC5)cnc3C)cc2cn1` [Compound 232, N-(6-methyl-5-(7-(methylamino)-1,6-naphthyridin-3-yl)pyridin-3-yl)-6,7,8,9-tetrahydro-5H-imidazo[1,2-a]azepine-3-carboxamide] displayed a GI50 of 100 to 500 nM.

As to `CNc1cc2ncc(-c3cc(NC(=O)c4csc5c4CCCC5)cnc3C)cc2cn1` [Compound 234, N-(6-methyl-5-(7-(methylamino)-1,6-naphthyridin-3-yl)pyridin-3-yl)-4,5,6,7-tetrahydrobenzo[b]thiophene-3-carboxamide], the GI50 is 20 to 100 nM.

Consider `CNc1cc2ncc(-c3cc(NC(=O)c4ccccc4NC(C)C(F)F)cnc3C)cc2cn1` (stereo not drawn) [Compound 226, 2-((1,1-difluoropropan-2-yl)amino)-N-(6-methyl-5-(7-(methylamino)-1,6-naphthyridin-3-yl)pyridin-3-yl)benzamide], for which the GI50 lay within 20 to 100 nM.

In turn, `CNc1cc2ncc(-c3cc(NC(=O)c4noc5c4CC(C(C)(C)C)CC5)cnc3C)cc2cn1` (stereo not drawn) [Compound 241, 5-(tert-butyl)-N-(6-methyl-5-(7-(methylamino)-1,6-naphthyridin-3-yl)pyridin-3-yl)-4,5,6,7-tetrahydrobenzo[d]isoxazole-3-carboxamide] returned a GI50 of 100 to 500 nM.

Compound `CNc1cc2ncc(-c3cc(NC(=O)c4noc5c4CCCC5)ccc3C)cc2cn1` [Compound 228, N-(4-methyl-3-(7-(methylamino)-1,6-naphthyridin-3-yl)phenyl)-4,5,6,7-tetrahydrobenzo[d]isoxazole-3-carboxamide] registered a GI50 of 100 to 500 nM.

Compound `CNc1cc2ncc(-c3cc(NC(=O)c4cc(C(O)(O)C(F)(F)F)ccn4)cnc3C)cc2cn1` [Compound 206, N-(6-methyl-5-(7-(methylamino)-1,6-naphthyridin-3-yl)pyridin-3-yl)-4-(2,2,2-trifluoro-1,1-dihydroxyethyl)picolinamide] yielded a GI50 of 20 to 100 nM.

The compound `CNc1cc2ncc(-c3cc(NC(=O)c4noc5c4CC(F)(F)CC5)cnc3C)cc2cn1` [Compound 247, 5,5-difluoro-N-(6-methyl-5-(7-(methylamino)-1,6-naphthyridin-3-yl)pyridin-3-yl)-4,5,6,7-tetrahydrobenzo[d]isoxazole-3-carboxamide] showed a GI50 of 20 to 100 nM.

As to `CNc1cc2ncc(-c3cc(C(=O)Nc4cc(C(C)(C)C#N)ccn4)cnn3)cc2cn1` [Compound 213, N-(4-(2-cyanopropan-2-yl)pyridin-2-yl)-6-(7-(methylamino)-1,6-naphthyridin-3-yl)pyridazine-4-carboxamide], the GI50 is at least 500 nM.

Values taken from US20250017914A1, “6-AZA-QUINOLINE DERIVATIVES AND RELATED USES” (Black Diamond Therapeutics, Inc., priority 2021, published 2025).
